Assay results published in patent US9371527B2, “Compositions and methods related to protein displacement therapy for myotonic distrophy” (University of Rochester, priority 2006, dated 2016).
“Also recorded” adds a separate entry of the source.

Legend:
ClC-1 channel = experiment: Whole cell patch clamp of single FDB muscle fibers after morpholino injection/electroporation; assay type: in vivo, HSA^LR mice; conditions: for ClC-1 current density: 3-5 days after foot pad injection/electroporation; for ClC-1 deactivation kinetics: 3-5 days after injection, -100 mV
Procedure: Antisense morpholino targeting the 3′ splice junction of ClC-1 exon 7a was injected into foot pad muscle of HSA^LR mice under general anesthesia. Uptake into muscle fibers was enhanced by in vivo electroporation. The morpholino was tagged with fluorescein. 4 days later, individual FDB muscle fibers were isolated. […] As a control, the opposite footpad was injected with morpholino having the inverted sequence. […] The peak current density in HSA^LR mice (center panel) is much lower than in wild-type mice (left panel). However, after morpholino treatment in HSA^LR mice (right panel), the current density is restored to levels that are similar to wild-type mice. […] The antisense morpholino (closed squares) restores chloride current density to normal levels (open circles or triangles).
The dashed lines represent the zero current level. Capacitative currents recorded from each fiber are shown in the insert of each panel (scale bars: vertical, 3 nA; horizontal, 4 ms). Superimposed traces (solid lines) of normalized ClC-1 current deactivation at −100 mV in FDB fibers obtained from invert- (circles) and antisense-treated (squares) HSA^LR mice and antisense-treated WT mice (triangles) fit with a second order exponential (symbols) are shown in the insert to the left hand panel. Note that accelerated ClC-1 deactivation kinetics of FDB fibers obtained from HSA^LR mice is normalized only following treatment with antisense morpholino. […] Smooth curves through each dataset were generated using a modified Boltzmann equation (Lueck, J. D., et al. (2007) J Gen Physiol 129:79-94). […] Mean±s.e.m.; *P<0.05 invert-treated HSA^LR fibers compared to each of the other experimental conditions; t-test. […] Mean±s.d.; n=3 to 7 per group. Antisense morpholino was injected into one TA, invert morpholino was injected into the contralateral TA, and gastrocnemius muscle served as an untreated control. **P<0.0001 for antisense- vs invert-treated control; ANOVA.
Therefore, the effect of AON treatment on ClC-1 channel function was determined Hindlimb foot pads of […] WT and HSA^LR mice were injected/electroporated with carboxyfluorescein-labeled antisense or invert morpholino. Patch clamp analysis was performed three-to-five days after injection, at a time when fibers were still small enough to maintain an effective voltage clamp (Lueck, J. D., et al. (2007) J Gen Physiol 129:79-94). […] Rescue of ClC-1 activity was not due to a shift in channel activation since the voltage dependence of relative channel open probability (Po) was not different between antisense and invert-injected HSA^LR and WT fibers (FIG. 26C).
Delivery of antisense and invert morpholinos into FDB fibers was achieved by injection and electroporation of hindlimb footpads. Briefly, 12-14-day-old HSA^LR mice were anesthetized by intraperitoneal injection of 100 mg/kg ketamine, 10 mg/kg xylazine, and 3 mg/kg acepromazine. Hindlimb foot pads then were injected with bovine hyaluronidase followed 1 hour later with 20 μg (10 μl, 2 μg/μl in PBS) of antisense or invert carboxyfluorescein-labeled morpholino. Uptake of morpholinos was enhanced by electroporation (100 V/cm, 20 pulses at 1 Hz, and 20 ms per pulse) of the foot pad immediately after injection (DiFranco, M., et al. (2006) Protein Expr Purif 47:281-288). Three to five days after injection/electroporation, individual FDB muscle fibers were isolated as previously described (Lueck, J. D., et al. (2007) J Gen Physiol 129:79-94). Brightfield and fluorescence (488 nm excitation) images of single FDB fibers were acquired using a 40× (1.4 NA) objective and a TILL IMAGO QE cooled-CCD camera. […] ClC-1 currents were measured and analyzed in whole cell patch clamp experiments (Hamill, O. P., et al. (1981) Pflugers Arch 391:85-100) using an approach identical to that described in detail elsewhere (Lueck, J. D., et al. (2007) J Gen Physiol 129:79-94). ClC-1 current density (pA/pF) was calculated in order to compare data across fibers of different sizes. […]

HSA^LR mice = experiment: Electromyography of myotonia after ClC-1 antisense morpholino, HSA^LR mice; assay type: in vivo; conditions: TA muscle
Procedure: FIGS. 21A, 21B, 21C, and 21D show the effects of antisense morpholino targeting the 3′ splice junction of ClC-1 exon 7a on splicing and myotonia in HSA^LR transgenic mice. Antisense morpholino targeting the 3′ splice junction of ClC-1 exon 7a was injected into tibialis anterior muscle of HSA^LR mice under general anesthesia (sequence 5′-[…]-3′ (SEQ ID NO: 4)). The contralateral muscle was injected with morpholino having the inverted sequence (5′-[…]-3′(SEQ ID NO: 5)). Uptake into muscle fibers was enhanced by in vivo electroporation. The determination of which side received the antisense morpholino was randomized. […] Electromyography was blinded to the randomization.
HSA^LR (Mankodi, A., et al. (2000) Science 289:1769-1773) or Mbnl1^ΔE3/ΔE3 mice (Kanadia, R. N., et al. (2003) Science 302:1978-1980) were anesthetized by intraperitoneal injection of 100 mg/kg ketamine, 10 mg/kg xylazine, and 3 mg/kg acepromazine. TA muscle was pretreated by intramuscular injection of bovine hyaluronidase (15 μl, 0.4 U/μl) (Sigma) (McMahon, J. M., et al. (2001) Gene Ther 8:1264-1270). Two hours later, 10 or 20 μg of morpholino in a total volume of 20 μl phosphate buffered saline (PBS) was injected using a 30-gauge needle. TA muscle was then electroporated using electrodes placed parallel to the long axis of the muscle. Electroporation parameters were 100 V/cm, 10 pulses at 1 Hz, and 20 ms duration per pulse. Antisense or control morpholino with inverted sequence was injected into TA muscles of opposite limbs. The determination of which TA received antisense morpholino was randomized, and investigators remained blinded to this assignment until EMG analyses were completed. Other analyses were performed without blinding. For experiments to determine the distribution of injected oligos, the antisense morpholino was labeled with carboxyfluorescein and cryosections of muscle (10 μM) were examined by fluorescence microscopy, with or without fixation in 4% paraformaldehyde. Some sections were co-labeled with TRITC-wheat germ agglutinin (Parsons, S. A., et al. (2003) Mol Cell Biol 23:4331-4343) (50 μg/ml in PBS; Sigma) and 4′,6-diamidino-2-phenylindole (DAPI) to highlight the surface membranes and nuclei of muscle fibers.
EMG was performed under general anesthesia as described previously (Kanadia, R. N., et al. (2003) Science 302:1978-1980). Images and video recordings of electromyographic myotonia in HSA^LR and Mbnl1^ΔE3/ΔE3 mice are shown in previous reports (Kanadia, R. N., et al. (2003) Science 302:1978-1980; Mankodi, A., et al. (2000) Science 289:1769-1773). […]

Substance	ClC-1 current density (ClC-1 channel; listed as antisense morpholino)	ClC-1 current density (ClC-1 channel; listed as morpholino AON)	ClC-1 deactivation kinetics (ClC-1 channel; listed as antisense morpholino)	ClC-1 deactivation kinetics (ClC-1 channel; listed as morpholino AON)	voltage dependence of relative channel open probability (Po) (ClC-1 channel; HSA^LR and WT)	myotonia (EMG) (HSA^LR mice; 3 weeks (21 days) after injection, listed as antisense morpholino)	myotonia (EMG) (HSA^LR mice; 8 weeks after injection, listed as antisense morpholino)	ClC-1 current density (ClC-1 channel; listed as invert morpholino)	ClC-1 current density (ClC-1 channel; listed as inverted morpholino)	ClC-1 deactivation kinetics (ClC-1 channel)	myotonia (EMG) (HSA^LR mice; 3 weeks (21 days) after injection)	myotonia (EMG) (HSA^LR mice; 8 weeks after injection)
antisense 1: morpholino 5′-CCAGGCACGGTCTGCAACAGAGAAG-3′ targeting the 3′ splice site of ClC-1 exon 7a (all phosphorodiamidate morpholino (PMO))	restores normal chloride current density	rescued to WT values	normalized	rescued to WT values	not different	marked reduction of myotonia; also recorded: markedly reduced or absent; also recorded: significantly reduced	markedly reduced or absent; also recorded: significantly reduced	–	–	–	–	–
control morpholino: control morpholino 5′-GAAGAGACAACGTCTGGCACGGACC-3′, the 5′-3′ invert of the 3′ splice site blocker (all phosphorodiamidate morpholino (PMO)) [reference compound]	–	–	–	–	–	–	–	not different from those of untreated HSA^LR fibers	markedly reduced	not different from those of untreated HSA^LR fibers	not different from uninjected muscle	not different from uninjected muscle
